Toxic doses and inconclusive results are not listed. Rule as the data show it: active = T/C of 150% or more; inactive = T/C below 125%.
Test system: L1210 leukemia ip in BDF1 mice, survival T/C
Assay: NCI In Vivo Anticancer Drug Screen. Data for tumor model L1210 Leukemia (intraperitoneal) in B6D2F1 (BDF1) mice
Details: endpoint: mean survival time, higher = longer survival
Outline: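 Ratio derived from survival: compound-dosed mice over vehicle-dosed mice, all bearing a transplantable tumor.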

[1] = dose: 100.0 mg/kg/injection, schedule: Q01DX009 (ip), vehicle: Klucel (hydroxypropylcellulose) (HPC)
[2] = dose: 100.0 mg/kg/injection, schedule: Q04DX003 (ip), vehicle: Klucel (hydroxypropylcellulose) (HPC)
[3] = dose: 200.0 mg/kg/injection, schedule: Q01DX009 (ip), vehicle: Klucel (hydroxypropylcellulose) (HPC)
[4] = dose: 200.0 mg/kg/injection, schedule: Q04DX003 (ip), vehicle: Klucel (hydroxypropylcellulose) (HPC)
[5] = dose: 400.0 mg/kg/injection, schedule: Q01DX009 (ip), vehicle: Klucel (hydroxypropylcellulose) (HPC)
[6] = dose: 400.0 mg/kg/injection, schedule: Q04DX003 (ip), vehicle: Klucel (hydroxypropylcellulose) (HPC)
[7] = dose: 100.0 mg/kg/injection, schedule: Q01DX001 (ip), vehicle: Klucel (hydroxypropylcellulose) (HPC)
[8] = dose: 200.0 mg/kg/injection, schedule: Q01DX001 (ip), vehicle: Klucel (hydroxypropylcellulose) (HPC)
[9] = dose: 400.0 mg/kg/injection, schedule: Q01DX001 (ip), vehicle: Klucel (hydroxypropylcellulose) (HPC)
[10] = dose: 100.0 mg/kg/injection, schedule: Q01DX001 (ip), vehicle: carboxymethylcellulose (CMC)
[11] = dose: 200.0 mg/kg/injection, schedule: Q01DX001 (ip), vehicle: carboxymethylcellulose (CMC)
[12] = dose: 400.0 mg/kg/injection, schedule: Q01DX001 (ip), vehicle: carboxymethylcellulose (CMC)
[13] = dose: 100.0 mg/kg/injection, schedule: Q04DX002 (ip), vehicle: Klucel (hydroxypropylcellulose) (HPC)
[14] = dose: 200.0 mg/kg/injection, schedule: Q04DX002 (ip), vehicle: Klucel (hydroxypropylcellulose) (HPC)
[15] = dose: 400.0 mg/kg/injection, schedule: Q04DX002 (ip), vehicle: Klucel (hydroxypropylcellulose) (HPC)

Measured: T/C

O=C1OCC/C1=C/CCC/C=C1\CCOC1=O
inactive: [1] 101 % of control | [2] 100 % of control | [3] 102 % of control | [4] 94 % of control | [5] 88 % of control | [6] 92 % of control

COc1ccc(C(=S)N(C)c2ccccc2C)cc1
inactive: [7] 98 % of control | [2] 96 % of control | [8] 112 % of control | [4] 103 % of control | [9] 105 % of control | [6] 100 % of control

CN1CCc2[nH]c3ccccc3c2C1
inactive: dose: 75.0 mg/kg/injection, schedule: Q04DX003 (ip), vehicle: Klucel (hydroxypropylcellulose) (HPC) 93 % of control | dose: 150.0 mg/kg/injection, schedule: Q04DX003 (ip), vehicle: Klucel (hydroxypropylcellulose) (HPC) 93 % of control

NC(=O)C1(Nc2ccc(-c3ccc(I)cc3)cc2)CCCC1
inactive: dose: 50.0 mg/kg/injection, schedule: Q01DX001 (ip), vehicle: carboxymethylcellulose (CMC) 86 % of control | [10] 86 % of control | [11] 86 % of control | [12] 90 % of control

Nc1ccc2c(c1)C(O)c1cc(N)c(Br)cc1-2 (centres undefined)
inactive: [10] 103 % of control | [11] 110 % of control | [12] 103 % of control

OCc1ccccc1CN1CCCC1
inactive: [7] 94 % of control | [8] 96 % of control | [9] 97 % of control

COc1ccc(NC(=O)c2cccc(C(=O)Nc3ccc(OC)cc3Cl)c2)c(Cl)c1
inactive: [13] 97 % of control | [14] 97 % of control | [15] 90 % of control

O=C1c2ccccc2C(=O)C2CC(c3ccccc3)=C(c3ccccc3)CC12 (centres undefined)
inactive: [13] 96 % of control | [14] 96 % of control | [15] 100 % of control

O[C@@H]1CCC[C@H]1n1cnc2c(=S)nc[nH]c21
inactive: dose: 89.0 mg/kg/injection, schedule: Q04DX003 (ip), vehicle: saline with Tween-80 104 % of control | dose: 133.0 mg/kg/injection, schedule: Q04DX003 (ip), vehicle: saline with Tween-80 112 % of control

CCCCCCCCCCCCCCCCCC(=O)OC1C(CO)OC2C1Oc1nc(=N)ccn12 (centres undefined)
active: dose: 12.5 mg/kg/injection, schedule: Q01DX009 (ip), vehicle: other 165 % of control | dose: 25.0 mg/kg/injection, schedule: Q01DX009 (ip), vehicle: other 190 % of control | dose: 50.0 mg/kg/injection, schedule: Q01DX009 (ip), vehicle: other 235 % of control | dose: 100.0 mg/kg/injection, schedule: Q01DX009 (ip), vehicle: other 283 % of control
inactive: dose: 200.0 mg/kg/injection, schedule: Q01DX009 (ip), vehicle: other 120 % of control

CS(=O)(=O)Oc1cc(=O)oc2ccccc12
inactive: dose: 50.0 mg/kg/injection, schedule: Q01DX009 (ip), vehicle: Klucel (hydroxypropylcellulose) (HPC) 103 % of control | [1] 109 % of control

Cc1cc(Cl)c(C)cc1Cl
inactive: dose: 100.0 mg/kg/injection, schedule: Q01DX009 (ip), vehicle: saline sonified 107 % of control | dose: 100.0 mg/kg/injection, schedule: Q04DX003 (ip), vehicle: saline sonified 100 % of control | dose: 200.0 mg/kg/injection, schedule: Q01DX009 (ip), vehicle: saline sonified 110 % of control | dose: 200.0 mg/kg/injection, schedule: Q04DX003 (ip), vehicle: saline sonified 101 % of control | dose: 400.0 mg/kg/injection, schedule: Q01DX009 (ip), vehicle: saline sonified 102 % of control | dose: 400.0 mg/kg/injection, schedule: Q04DX003 (ip), vehicle: saline sonified 94 % of control

BrC1C(Br)C(Br)C2OC2C1Br (centres undefined)
inactive: [1] 96 % of control | [3] 102 % of control | [5] 98 % of control

CCC(=O)Nc1cc(Cl)ccc1OC
inactive: [1] 94 % of control | [2] 98 % of control | [3] 100 % of control | [4] 93 % of control | [5] 93 % of control | [6] 106 % of control
